Measurements reported in patent US8575158B2, “1-phenyl-substituted heterocyclyl derivatives and their use as prostaglandin D2 receptor modulators” (Actelion Pharmaceuticals Ltd., priority 2010, dated 2013).
pIC50: −log10 of the molar value.

Target: T1, hCRTH2 receptor (Homo sapiens, UniProt Q9Y5Y4)
T1 construct: expressed in transfected cells; host or cells: HEK293
T1 sequence (Q9Y5Y4 1-395): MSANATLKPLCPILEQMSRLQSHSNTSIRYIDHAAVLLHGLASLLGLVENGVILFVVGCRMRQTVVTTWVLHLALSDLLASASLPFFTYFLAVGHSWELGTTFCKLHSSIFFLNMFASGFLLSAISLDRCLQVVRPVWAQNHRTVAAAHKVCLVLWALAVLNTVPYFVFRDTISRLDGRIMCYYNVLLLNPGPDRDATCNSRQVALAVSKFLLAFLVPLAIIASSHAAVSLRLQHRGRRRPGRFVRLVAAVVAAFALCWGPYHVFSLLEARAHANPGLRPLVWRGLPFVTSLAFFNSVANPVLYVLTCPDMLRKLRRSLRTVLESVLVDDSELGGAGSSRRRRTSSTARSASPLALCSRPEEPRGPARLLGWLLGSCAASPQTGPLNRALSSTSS
Assay: Radioligand displacement assay (3H-PGD2) on hCRTH2 receptor membranes
Type: binding
Settings: antagonistic activity, 3H-PGD2 radioligand displacement, HEK293-hCRTH2 membranes

SMILES	pIC50
O=C(O)COc1ccc(Cl)cc1C1c2ccccc2CCN1C(=O)COc1ccc(C(F)(F)F)nc1 (racemic) [Example 481]	6.84
O=C(O)COc1ccc(Cl)cc1C1c2ccccc2CCN1C(=O)COc1cccnc1F (racemic) [Example 482]	6.70
Cn1cnc2cc(OCC(=O)N3CCc4ccccc4C3c3cc(Cl)ccc3OCC(=O)O)cnc21 (racemic) [Example 483]	6.33
COc1ncc(C)cc1OCC(=O)N1CCc2ccccc2C1c1cc(Cl)ccc1OCC(=O)O (racemic) [Example 484]	6.79
COc1cc(OCC(=O)N2CCc3ccccc3C2c2cc(Cl)ccc2OCC(=O)O)cnc1OC (racemic) [Example 485]	6.50
COc1ccc(OCC(=O)N2CCc3ccccc3C2c2cc(Cl)ccc2OCC(=O)O)cn1 (racemic) [Example 486]	6.43
O=C(O)COc1ccc(Cl)cc1C1c2ccccc2CCN1C(=O)COc1cnccc1Cl (racemic) [Example 487]	6.40
Cc1cn(CC(=O)N2CCc3ccccc3C2c2cc(Cl)ccc2OCC(=O)O)c2ccccc12 (racemic) [Example 488]	6.97
COc1ccc2c(ccn2CC(=O)N2CCc3ccccc3C2c2cc(Cl)ccc2OCC(=O)O)c1 (racemic) [Example 489]	6.50
CCCCNC(=O)N1CCc2ccccc2C1c1cc(Cl)ccc1OCC(=O)O (racemic) [Example 496]	7.20
O=C(O)COc1ccc(F)cc1C1c2cc(-c3ccc(F)cc3)ccc2CCN1C(=O)OCc1ccccc1 (racemic) [Example 497]	6.10
O=C(O)COc1ccc(F)cc1C1c2cc(-c3cncnc3)ccc2CCN1C(=O)OCc1ccccc1 (racemic) [Example 498]	6.42
O=C(O)COc1ccc(Cl)cc1C1c2ccccc2CN1C(=O)CCc1cccnc1 (racemic) [Example 505]	6.72
Cc1ccccc1CCC(=O)N1Cc2ccccc2C1c1cc(Cl)ccc1OCC(=O)O (racemic) [Example 506]	7.10
O=C(O)COc1ccc(Cl)cc1C1c2ccccc2CN1C(=O)Cn1ccc2ccccc21 (racemic) [Example 507]	6.89
CCn1c(C)c(CCC(=O)N2Cc3ccccc3C2c2cc(Cl)ccc2OCC(=O)O)c2ccccc21 (racemic) [Example 508]	6.90
Cc1[nH]c2ccccc2c1CCC(=O)N1Cc2ccccc2C1c1cc(Cl)ccc1OCC(=O)O (racemic) [Example 510]	6.74
O=C(O)COc1ccc(Cl)cc1C1c2ccccc2CN1C(=O)CCN1CCCc2ccccc21 (racemic) [Example 515]	7.22
O=C(O)COc1ccc(Cl)cc1C1c2ccccc2CN1C(=O)CCOc1cccc(F)c1 (racemic) [Example 517]	6.91
O=C(O)COc1ccc(Cl)cc1C1c2ccccc2CN1C(=O)CCOc1ccc(F)cc1 (racemic) [Example 520]	6.89

Next, values leading:

pIC50	SMILES
7.82	O=C(O)COc1ccc(Cl)cc1C1c2ccccc2CCN1C(=O)NCc1ccccc1Cl (racemic) [Example 490]
7.70	O=C(O)COc1ccc(Cl)cc1C1c2ccccc2CCN1C(=O)NCc1cccc(F)c1 (racemic) [Example 491]
7.78	O=C(O)COc1ccc(Cl)cc1C1c2ccccc2CCN1C(=O)NCc1ccccc1 (racemic) [Example 492]
7.65	O=C(O)COc1ccc(Cl)cc1C1c2ccccc2CCN1C(=O)NCCc1ccccc1 (racemic) [Example 493]
7.77	O=C(O)COc1ccc(Cl)cc1C1c2ccccc2CCN1C(=O)NCc1ccc(F)cc1 (racemic) [Example 494]
7.62	O=C(O)COc1ccc(Cl)cc1C1c2ccccc2CCN1C(=O)NCc1ccccc1F (racemic) [Example 495]
7.60	O=C(O)COc1ccc(F)cc1C1c2ccccc2CN1C(=O)OCc1ccccc1 (racemic) [Example 499]
7.89	O=C(O)COc1ccc(Cl)cc1C1c2ccc(F)cc2CN1C(=O)OCc1ccccc1 (racemic) [Example 500]
8.09	O=C(O)COc1ccc(Cl)cc1C1c2cccc(F)c2CN1C(=O)OCc1ccccc1 (racemic) [Example 501]
7.25	COc1ccccc1OCC(=O)N1Cc2ccccc2C1c1cc(Cl)ccc1OCC(=O)O (racemic) [Example 502]
7.48	O=C(O)COc1ccc(Cl)cc1C1c2ccccc2CN1C(=O)COc1ccc(F)cc1 (racemic) [Example 504]
7.42	O=C(O)COc1ccc(Cl)cc1C1c2ccccc2CN1C(=O)COc1cccc2cccnc12 (racemic) [Example 509]
7.83	COc1ccc2[nH]cc(CCC(=O)N3Cc4ccccc4C3c3cc(Cl)ccc3OCC(=O)O)c2c1 (racemic) [Example 511]
7.37	Cc1ccc(OCC(=O)N2Cc3ccccc3C2c2cc(Cl)ccc2OCC(=O)O)c(C)n1 (racemic) [Example 512]
7.59	Cn1cc(CCC(=O)N2Cc3ccccc3C2c2cc(Cl)ccc2OCC(=O)O)c2ccccc21 (racemic) [Example 513]
7.41	O=C(O)COc1ccc(Cl)cc1C1c2ccccc2CN1C(=O)CCN1CCc2ccccc21 (racemic) [Example 514]
7.90	O=C(O)COc1ccc(Cl)cc1C1c2ccccc2CN1C(=O)CCn1ncc2ccccc21 (racemic) [Example 516]
7.70	COc1ccc2onc(CC(=O)N3Cc4ccccc4C3c3cc(Cl)ccc3OCC(=O)O)c2c1 (racemic) [Example 518]
7.43	Cc1cn(CCC(=O)N2Cc3ccccc3C2c2cc(Cl)ccc2OCC(=O)O)c2ccccc12 (racemic) [Example 519]
8.04	O=C(O)COc1ccc(Cl)cc1C1c2ccccc2CN1C(=O)COCc1ccccc1Cl (racemic) [Example 521]
7.93	O=C(O)COc1ccc(Cl)cc1C1c2ccccc2CN1C(=O)CCOc1ccccc1F (racemic) [Example 522]
8.34	O=C(O)COc1ccc(Cl)cc1C1c2ccc(F)cc2CN1C(=O)CCn1ncc2ccccc21 (racemic) [Example 526, (±)-{4-Chloro-2-[5-fluoro-2-(3-indazol-1-yl-propionyl)-2,3-dihydro-1H-isoindol-1-yl]-phenoxy}-acetic acid]
7.71	O=C(O)COc1ccc(Cl)cc1C1c2ccccc2CN1C(=O)NCc1ccccc1F (racemic) [Example 552]
7.76	O=C(O)COc1ccc(Cl)cc1C1c2ccccc2CN1C(=O)NCc1cccc(F)c1 (racemic) [Example 553]
7.59	O=C(O)COc1ccc(Cl)cc1C1c2ccccc2CN1C(=O)NCc1ccc(F)cc1 (racemic) [Example 554]
7.84	O=C(O)COc1ccc(Cl)cc1C1c2ccccc2CN1C(=O)NCc1ccccc1 (racemic) [Example 555]
7.93	O=C(O)COc1ccc(Cl)cc1C1c2ccccc2CN1C(=O)NCCc1ccccc1 (racemic) [Example 556]
7.86	O=C(O)COc1ccc(Cl)cc1C1c2ccccc2CN1C(=O)NCc1ccccc1Cl (racemic) [Example 557]
7.77	O=C(O)COc1ccc(Cl)cc1C1c2ccc(Cl)c(Cl)c2CN1C(=O)OCc1ccccc1 (racemic) [Example 558]
7.95	O=C(O)COc1ccc(Cl)cc1C1c2ccc(F)c(F)c2CN1C(=O)OCc1ccccc1 (racemic) [Example 559]

Same assay, conditions: antagonistic activity; 3H-PGD2 displacement on HEK293-hCRTH2 membrane fragments

pIC50	SMILES
8.32	O=C(O)COc1ccc(Cl)cc1C1c2ccccc2CCN1C(=O)[C@@H]1C[C@H]1c1ccccc1Cl (relative stereo) [Example 82, (4-Chloro-2-{2-[trans-2-(2-chloro-phenyl)-cyclopropanecarbonyl]-1,2,3,4-tetrahydro-isoquinolin-1-yl}-phenoxy)-acetic acid]
7.49	O=C(O)COc1ccc(Cl)cc1C1c2cccc(F)c2CCN1C(=O)[C@@H]1C[C@H]1c1ccccc1 (relative stereo) [Example 117, {4-Chloro-2-[5-fluoro-2-(trans-2-phenyl-cyclopropanecarbonyl)-1,2,3,4-tetrahydro-isoquinolin-1-yl]-phenoxy}-acetic acid]
8.11	O=C(O)COc1ccc(F)cc1[C@@H]1c2ccccc2CCN1C(=O)[C@@H]1C[C@H]1c1ccccc1 (single isomer, unassigned) [Example 29]
6.04	O=C(O)COc1ccc(F)cc1[C@@H]1c2ccccc2CCN1C(=O)[C@@H]1C[C@H]1c1ccccc1 (single isomer, unassigned) [Example 30]
6.91	Cc1ccccc1C1CC1C(=O)N1CCc2ccccc2C1c1cc(Cl)ccc1OCC(=O)O (single isomer, unassigned) [Example 153, (±)-{4-Chloro-2-[2-((trans)-2-o-tolyl-cyclopropanecarbonyl)-1,2,3,4-tetrahydro-isoquinolin-1-yl]-phenoxy}-acetic acid (diastereosiomer 1)]

Same assay, conditions: radioligand displacement (3H-PGD2), hCRTH2 receptor membranes; antagonistic activity

pIC50	SMILES
6.49	O=C(OCc1ccccc1)N1CCc2ccccc2C1c1cc(Cl)ccc1OCc1noc(=O)[nH]1 (racemic) [Example 572, (±)-1-[5-Chloro-2-(5-oxo-4,5-dihydro-[1,2,4]oxadiazol-3-ylmethoxy)-phenyl]-3,4-dihydro-1H-isoquinoline-2-carboxylic acid benzyl ester]
7.82	O=C(OCc1ccccc1)N1CCc2ccccc2C1c1cc(Cl)ccc1OCc1cc(O)no1 (racemic) [Example 573, (±)-1-[5-Chloro-2-(3-hydroxy-isoxazol-5-ylmethoxy)-phenyl]-3,4-dihydro-1H-isoquinoline-2-carboxylic acid benzyl ester]
